Reference: publication PMC10675597, “Design, Synthesis, and Antisickling Investigation of a Thiazolidine Prodrug of TD-7 That Prolongs the Duration of Action of Antisickling Aromatic Aldehyde” (Pharmaceutics, 2023)

Experiments:
[1] = target: T1, Hb in human normal whole blood (Homo sapiens, UniProt P69905); assay: In-vitro time-dependent Hb modification (Hb adduct formation), cation-exchange HPLC; assay type: cell-based; details: 2 mM, normal whole blood 30% hematocrit
T1 construct: normal whole blood (AA) was collected from adult donors; from tissue; host or cells: normal (AA) human whole blood from adult donors, 30% hematocrit
T1 sequence (P69905 2-142 limits assumed): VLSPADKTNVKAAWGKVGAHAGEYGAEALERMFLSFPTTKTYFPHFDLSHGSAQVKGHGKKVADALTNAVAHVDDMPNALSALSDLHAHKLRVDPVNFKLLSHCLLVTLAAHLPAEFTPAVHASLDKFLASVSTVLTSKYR
T1 sequence (P68871 2-147 partner limits assumed): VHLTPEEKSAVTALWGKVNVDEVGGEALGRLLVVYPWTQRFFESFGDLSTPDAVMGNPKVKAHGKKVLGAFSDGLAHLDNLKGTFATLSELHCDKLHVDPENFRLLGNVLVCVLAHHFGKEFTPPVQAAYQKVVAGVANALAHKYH
Protocol: Pro-7 and the control TD-7 were used to conduct time-dependent Hb modification (Hb adduct formation) studies using normal whole blood as previously reported. A 200 mM stock solution of each compound was made with DMSO. In a 96-well 1.2 mL polypropylene deep-well plate (Thermo Scientific, Hampshire, UK), 2.0 mM concentration of each compound was added to 600 μL of whole blood (30% hematocrit), which was then incubated at 37 °C for 24 h with shaking (at 140 rpm). A control sample was supplemented only with an equivalent volume of DMSO. At different time points (0–24 h), 50 μL aliquots of this mixture were withdrawn from each well using a multichannel pipette and added to respective tubes containing 50 μL of sodium cyanoborohydride (NaBH3CN) and sodium borohydride (NaBH4) mixture (1:1 v/v 50 mM stock) to terminate the Schiff-base reaction, fix the Schiff-base Hb adducts and reduce the free reactive aldehyde. After mixing, the tubes were stored immediately at −80 °C until ready for analysis using cation-exchange HPLC (Hitachi D-7000 Series, Hitachi Instruments, Inc. San Jose, CA, USA) for Hb-compound adduct formation. The observed Hb adducts in %Hb modification were plotted as a function of time (h).
(§1) Human normal whole blood was used to assess the degree of Hb modification and Hb oxygen affinity (P50 shift), while sickle blood was used to investigate RBC sickling inhibition. Pro-7 and the positive control TD-7 were incubated with normal whole blood suspensions. […] For the sickling inhibition study, Pro-7 and the positive control TD-7 were incubated with SS blood suspensions under hypoxic conditions (2.5% O2/97.5% N2), and aliquot blood samples were drawn at three time points (1, 3 and 6 h) and used for assessing RBC morphology. The results summarized in Table 1 and Figure 4A–C show time-dependent effects for all three pharmacodynamic activities. […] Even at the end of the 24-h experiment, Pro-7 activity was still increasing.

[2] = In-vitro stability in different pH buffers (aldehyde peak absorbance at 349 nm); assay type: physicochemical; details: for Stability (absorbance of aldehyde peak at 349 nm): 1 mM, 37 °C
Protocol: The stability of Pro-7 and the control TD-7 in different pH buffers (PBS buffer at pH 7.4, KCl·HCl buffer at pH 2.0, and Tris buffer at pH 8.0) was evaluated over time as previously reported. The ionic strength of all buffers was kept constant at 150 mM. A 200 mM stock solution of each compound was prepared using anhydrous DMSO. 1 mM solutions of each of the test compounds TD-7 and Pro-7 were prepared in duplicate for each of the three different pH buffers. […]
An in-vitro time-dependent (1–96 h) stability study of Pro-7 was conducted to inform the formulation of the prodrug. The study was conducted at three different pHs: 2.0, 7.4 and 8.0, which mimic stomach, blood and intestinal pH conditions, respectively. The presence of TD-7 or the rate of appearance of TD-7 upon dissociation of Pro-7 was monitored at 349 nm spectrophotometrically.

[3] = target: T1, Hb in human normal whole blood; assay: In-vitro time-dependent oxygen equilibrium study (P50 shift); assay type: cell-based; details: 2 mM, normal whole blood 30% hematocrit
Protocol: An oxygen equilibrium curve study was conducted in a time-dependent manner to determine the effect and duration of Pro-7 on Hb affinity for oxygen (P50 shift) following standard procedure. Pro-7, along with the controls TD-7 and DMSO were used for the studies with normal whole blood sample (30% hematocrit). Each compound was incubated with the blood at a final concentration of 2 mM, and aliquot samples were taken at 1, 3, 6, 12 and 24 h and further incubated in IL 237 tonometer (Instrumentation Laboratories, Inc., Lexington, MA, USA) for 10 min at 37 °C, and allowed to equilibrate at oxygen tensions 6, 20, and 40 mmHg. The samples were then aspirated into a Radiometer ABL 800 Automated Blood Gas Analyzer (Copenhagen, Denmark ) to determine the pH, partial pressure of CO2 (pCO2), partial pressure of oxygen (pO2), and Hb oxygen saturation values (SO2). The measured values of pO2 (mmHg) and SO2 at each pO2 value were then subjected to a non-linear regression analysis using the program Scientist (Micromath, Salt Lake City, UT, USA) to estimate P50 as a measure of Hb oxygen affinity as previously reported.
as §1

[4] = system: SS cells (homozygous sickle cell blood); assay: In-vitro time-dependent RBC sickling inhibition under hypoxia; assay type: cell-based, human; details: 2 mM, SS cells 20% hematocrit, hypoxia (4% oxygen/96% nitrogen)
Protocol: Red blood cell sickling inhibition studies with Pro-7 and the control TD-7 was conducted using previously reported procedure. Blood suspensions from subjects with homozygous SCD (hematocrit 20%) were incubated under air in the absence or presence of test compounds at 37 °C for 1 h to ensure that binding has attained equilibrium. […] Aliquot samples were fixed with 2% glutaraldehyde solution without exposure to air, and then subjected to microscopic morphological analysis.
Human normal whole blood was used to assess the degree of Hb modification and Hb oxygen affinity (P50 shift), while sickle blood was used to investigate RBC sickling inhibition. […] The results summarized in Table 1 and Figure 4A–C show time-dependent effects for all three pharmacodynamic activities. […] Even at the end of the 24-h experiment, Pro-7 activity was still increasing.

For “1-(2-(3-((6-(hydroxymethyl)pyridin-2-yl)methoxy)-5 methoxyphenyl)thiazolidin-4-yl)propan-1-one [Pro-7]”, the “%Hb Modification (Hb Adduct)” value ([1]; 0 h) was 0.00 ± 0.00%, the “%Hb Modification (Hb Adduct)” value ([1]; 1 h) was 7.10 ± 4.40% and the “%Hb Modification (Hb Adduct)” value ([1]; 2 h) was 14.30 ± 6.80%. For the same substance, the “%Hb Modification (Hb Adduct)” value ([1]; 4 h) was 17.50 ± 7.10%, the “%Hb Modification (Hb Adduct)” value ([1]; 8 h) was 29.70 ± 10.9% and the “%Hb Modification (Hb Adduct)” value ([1]; 12 h) was 41.20 ± 15.8%. For the same substance, the “%Hb Modification (Hb Adduct)” value ([1]; 24 h) was 54.80 ± 21.8%, the “degradation to release TD-7 (in words)” value ([2]; pH 2.0) was “very fast degradation” and the “time for formation of TD-7 from Pro-7 to be almost completed” value ([2]; pH 2.0) was ≤ 1 h. For the same substance, the “Stability (absorbance of aldehyde peak at 349 nm)” value (shortened to “Stability”) ([2]; pH 2.0, 0 hr) was 1.22 ± 0.4, the “Stability” value ([2]; pH 2.0, 1 hr) was 3.16 ± 0.2 and the “Stability” value ([2]; pH 2.0, 2 hr) was 3.17 ± 0.09. For the same substance, the “Stability” value ([2]; pH 2.0, 3 hr) was 3.36 ± 0.03, the “Stability” value ([2]; pH 2.0, 6 hr) was 3.27 ± 0.02 and the “Stability” value ([2]; pH 2.0, 24 hr) was 3.05 ± 0.00. For the same substance, the “Stability” value ([2]; pH 7.4, 0 hr) was 0.14 ± 0.01, the “Stability” value ([2]; pH 7.4, 1 hr) was 0.16 ± 0.00 and the “Stability” value ([2]; pH 7.4, 2 hr) was 0.17 ± 0.00. For the same substance, the “Stability” value ([2]; pH 7.4, 3 hr) was 0.09 ± 0.09, the “Stability” value ([2]; pH 7.4, 6 hr) was 0.22 ± 0.00 and the “Stability” value ([2]; pH 7.4, 24 hr) was 0.49 ± 0.00. For the same substance, the “Stability” value ([2]; pH 7.4, 28 hr) was 0.55 ± 0.00, the “Stability” value ([2]; pH 7.4, 48 hr) was 0.98 ± 0.02 and the “Stability” value ([2]; pH 7.4, 56 hr) was 1.10 ± 0.03. For the same substance, the “Stability” value ([2]; pH 7.4, 72 hr) was 1.77 ± 0.07, the “Stability” value ([2]; pH 7.4, 96 hr) was 2.59 ± 0.03 and the “Stability” value ([2]; pH 8.0, 0 hr) was 0.14 ± 0.00. For the same substance, the “Stability” value ([2]; pH 8.0, 1 hr) was 0.12 ± 0.00, the “Stability” value ([2]; pH 8.0, 2 hr) was 0.15 ± 0.00 and the “Stability” value ([2]; pH 8.0, 3 hr) was 0.17 ± 0.00. The “Stability” value ([2]; pH 8.0, 6 hr) was 0.24 ± 0.01, the “Stability” value ([2]; pH 8.0, 24 hr) was 0.64 ± 0.16 and the “Stability” value ([2]; pH 8.0, 28 hr) was 1.00 ± 0.05. The “Stability” value ([2]; pH 8.0, 48 hr) was 1.33 ± 0.32, the “Stability” value ([2]; pH 8.0, 72 hr) was 1.89 ± 0.04 and the “Stability” value ([2]; pH 8.0, 96 hr) was 1.86 ± 0.01. For the same substance, the “degradation to release TD-7 (in words)” value ([2]; pHs 7.4 and 8.0) was “slow degradation”, the “time for TD-7 to be detected in a significant amount” value ([2]; pHs 7.4 and 8.0) was ~ 6 h and the “time to full dissociation into TD-7” value ([2]; pHs 7.4 and 8.0) was “approximately four days”. For the same substance, the “%Hb O2 Affinity (P50 Shift)” value ([3]; 1 h) was 6.48 ± 1.54%, the “%Hb O2 Affinity (P50 Shift)” value ([3]; 3 h) was 13.57 ± 5.53% and the “%Hb O2 Affinity (P50 Shift)” value ([3]; 6 h) was 21.64 ± 10.93%. For the same substance, the “%Hb O2 Affinity (P50 Shift)” value ([3]; 12 h) was 41.04 ± 10.93%, the “%Hb O2 Affinity (P50 Shift)” value ([3]; 24 h) was 43.87 ± 3.22% and the “%Sickling Inhibition” value ([4]; 1 h) was 12.53%. For the same substance, the “%Sickling Inhibition” value ([4]; 3 h) was 40.76% and the “%Sickling Inhibition” value ([4]; 6 h) was 52.04%.
